From patent US20260041679A1, “METHOD OF TREATING HYPERTENSION WITH THE ALDOSTERONE SYNTHASE INHIBITOR BAXDROSTAT” (CINCOR PHARMA, INC., priority 2022, published 2026)

What was measured:
[1] = Study 124 Part 1: safety, adverse events and serum potassium; assay type: in vivo, human
Description: The safety objectives for both Parts 1 and 2 are to evaluate vital signs, standing blood pressure, heart rate, physical examinations, ECG, body weight, and clinical laboratory assessments, including standard safety chemistry panel, hematology, coagulation, and urinalysis.

aldosterone synthase = molecular target: T1, aldosterone synthase (Homo sapiens, UniProt P19099); test: Single ascending dose study, pharmacodynamics: aldosterone, cortisol with ACTH challenge (Example 1); assay type: in vivo
T1 construct: Pharmacodynamic measurements included plasma aldosterone, cortisol, and electrolytes; endogenous in cells; host or cells: human subjects in vivo (healthy volunteers; resistant hypertension patients)
T1 sequence (P19099 25-503): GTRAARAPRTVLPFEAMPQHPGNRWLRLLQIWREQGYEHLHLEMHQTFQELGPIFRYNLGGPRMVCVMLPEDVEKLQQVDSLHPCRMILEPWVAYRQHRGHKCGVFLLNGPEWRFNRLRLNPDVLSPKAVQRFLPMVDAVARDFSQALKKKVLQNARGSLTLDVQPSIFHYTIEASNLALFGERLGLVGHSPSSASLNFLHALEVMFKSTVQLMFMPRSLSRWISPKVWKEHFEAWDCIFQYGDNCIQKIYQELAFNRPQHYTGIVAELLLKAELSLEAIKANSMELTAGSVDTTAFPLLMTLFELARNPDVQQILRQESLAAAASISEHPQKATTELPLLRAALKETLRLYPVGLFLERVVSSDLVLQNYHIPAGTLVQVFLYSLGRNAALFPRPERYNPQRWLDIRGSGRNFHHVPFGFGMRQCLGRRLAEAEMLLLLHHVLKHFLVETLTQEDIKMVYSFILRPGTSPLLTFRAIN
Method: Eighty-eight healthy male volunteers completed the first-in-human study of baxdrostat. In part 1 of the trial, subjects received a single oral dose of baxdrostat ranging from 1 to 360 mg in order to evaluate safety, tolerability, PK, and pharmacodynamics (PD). Part 2 evaluated the PK of a single 3 mg intravenous dose of baxdrostat.

[2] = Relative bioavailability tablet vs oral solution and food effect (Example 3); assay type: in vivo, human; settings: for Tmax: human, plasma, oral, 5 mg
Method: The relative bioavailability of a tablet formulation of baxdrostat was compared to the oral solution of baxdrostat that was administered in the SAD (Example 1) and MAD (Example 2) studies. A single 5 mg dose of each formulation in fourteen healthy volunteers established that plasma levels of baxdrostat were equivalent whether administered using the oral solution or tablet. This study also assessed the effect of a standardized high-fat meal on the PK of baxdrostat.

[3] = Multiple ascending dose study, safety (Example 2); assay type: in vivo, human; settings: 0.5 to 5.0 mg once daily, 10 days
Method: This randomized, double-blind, placebo-controlled phase 1 study evaluated the safety, pharmacokinetics, and pharmacodynamics of multiple ascending doses of baxdrostat in healthy volunteers. Fifty-six subjects were randomized to receive oral baxdrostat (0.5, 1.5, 2.5, or 5.0 mg) or placebo once daily for ten days and were placed on either a low salt or normal salt diet for the duration of the study. In particular, subjects were randomized into 5 cohorts to receive baxdrostat or placebo once daily for 10 days. Cohorts 1 and 2 were placed on a low salt diet to stimulate aldosterone production and were administered 2.5 or 5.0 mg oral baxdrostat, respectively. Cohorts 1 and 2 also underwent an adrenocorticotropic hormone (ACTH) challenge to increase aldosterone and cortisol levels to evaluate the specificity of baxdrostat for targeting aldosterone synthase. Cohorts 3, 4, and 5 were placed on a normal salt diet and were administered 1.5, 2.5, or 0.5 mg oral baxdrostat, respectively. Blood samples were collected prior to and after dosing on days 1 and 10 for measurement of plasma baxdrostat concentrations to characterize single-dose and steady-state pharmacokinetics. Pharmacodynamic measurements included plasma aldosterone, cortisol, and electrolytes. Safety assessments included physical examination, electrocardiograms, orthostatic vital signs, and clinical laboratory evaluations.

[4] = Part 1, 0.5 mg baxdrostat, n = 63
[5] = Part 1, 1 mg baxdrostat, n = 62
[6] = Part 1, 2 mg baxdrostat, n = 60

SMILES: CCC(=O)N[C@@H]1CCCc2c(-c3ccc4c(c3)CCC(=O)N4C)cncc21 [baxdrostat, (R)—N-(4-(1-methyl-2-oxo-1,2,3,4-tetrahydroquinolin-6-yl)-5,6,7,8-tetrahydroisoquinolin-8-yl) propionamide]
- Mean Change in Serum Potassium From Baseline at Week 8 (SD) ([1]; 0.5 mg): −0.07 (0.37) mmol/L
- Mean Change in Serum Potassium From Baseline at Week 8 (SD) ([1]; 1 mg): 0.26 (0.47) mmol/L
- Mean Change in Serum Potassium From Baseline at Week 8 (SD) ([1]; 2 mg): 0.12 (0.48) mmol/L
- increase in mean potassium ([1]; 2 mg dose): 0.1 mEq/L
- potassium elevations>6.2 mEq/L ([1]; Part 1): No potassium elevations>6.2 mEq/L were recorded
- share of patients receiving baxdrostat with potassium>6 mEq/L ([1]; Part 1): ~1.6%
- treatment emergent SAEs ([1]; Part 1): two treatment emergent SAEs (2 patients) and neither were deemed related to baxdrostat
- patients with isolated instances of moderately elevated potassium>6 mEq/L ([1]; Part 1, all baxdrostat doses): Three
- AESI, % [1, 4]: 1.6%
- AESI, e - Number of events [1, 4]: 1
- AESI, n - Number of subjects [1, 4]: 1
- SAEs, % [1, 4]: 0.0%
- SAEs, e - Number of events [1, 4]: 0
- SAEs, n - Number of subjects [1, 4]: 0
- TEAEs Drug-Related, % [1, 4]: 6.3%
- TEAEs Drug-Related, e - Number of events [1, 4]: 6
- TEAEs Drug-Related, n - Number of subjects [1, 4]: 4
- TEAEs Leading to death, % [1, 4]: 0.0%
- TEAEs Leading to death, e - Number of events [1, 4]: 0
- TEAEs Leading to death, n - Number of subjects [1, 4]: 0
- TEAEs Leading to dosing discontinuation, % [1, 4]: 1.6%
- TEAEs Leading to dosing discontinuation, e - Number of events [1, 4]: 1
- TEAEs Leading to dosing discontinuation, n - Number of subjects [1, 4]: 1
- TEAEs Leading to study discontinuation, % [1, 4]: 1.6%
- TEAEs Leading to study discontinuation, e - Number of events [1, 4]: 1
- TEAEs Leading to study discontinuation, n - Number of subjects [1, 4]: 1
- TEAEs, % [1, 4]: 28.6%
- TEAEs, e - Number of events [1, 4]: 30
- TEAEs, n - Number of subjects [1, 4]: 18
- AESI, % [1, 5]: 1.6%
- AESI, e - Number of events [1, 5]: 1
- AESI, n - Number of subjects [1, 5]: 1
- SAEs, % [1, 5]: 1.6%
- SAEs, e - Number of events [1, 5]: 1
- SAEs, n - Number of subjects [1, 5]: 1
- TEAEs Drug-Related, % [1, 5]: 9.7%
- TEAEs Drug-Related, e - Number of events [1, 5]: 10
- TEAEs Drug-Related, n - Number of subjects [1, 5]: 6
- TEAEs Leading to death, % [1, 5]: 0.0%
- TEAEs Leading to death, e - Number of events [1, 5]: 0
- TEAEs Leading to death, n - Number of subjects [1, 5]: 0
- TEAEs Leading to dosing discontinuation, % [1, 5]: 3.2%
- TEAEs Leading to dosing discontinuation, e - Number of events [1, 5]: 2
- TEAEs Leading to dosing discontinuation, n - Number of subjects [1, 5]: 2
- TEAEs Leading to study discontinuation, % [1, 5]: 0.0%
- TEAEs Leading to study discontinuation, e - Number of events [1, 5]: 0
- TEAEs Leading to study discontinuation, n - Number of subjects [1, 5]: 0
- TEAEs, % [1, 5]: 30.6%
- TEAEs, e - Number of events [1, 5]: 42
- TEAEs, n - Number of subjects [1, 5]: 19
- AESI, % [1, 6]: 6.7%
- AESI, e - Number of events [1, 6]: 4
- AESI, n - Number of subjects [1, 6]: 4
- SAEs, % [1, 6]: 1.7%
- SAEs, e - Number of events [1, 6]: 1
- SAEs, n - Number of subjects [1, 6]: 1
- TEAEs Drug-Related, % [1, 6]: 10.0%
- TEAEs Drug-Related, e - Number of events [1, 6]: 8
- TEAEs Drug-Related, n - Number of subjects [1, 6]: 6
- TEAEs Leading to death, % [1, 6]: 1.7%
- TEAEs Leading to death, e - Number of events [1, 6]: 1
- TEAEs Leading to death, n - Number of subjects [1, 6]: 1
- TEAEs Leading to dosing discontinuation, % [1, 6]: 3.3%
- TEAEs Leading to dosing discontinuation, e - Number of events [1, 6]: 2
- TEAEs Leading to dosing discontinuation, n - Number of subjects [1, 6]: 2
- TEAEs Leading to study discontinuation, % [1, 6]: 1.7%
- TEAEs Leading to study discontinuation, e - Number of events [1, 6]: 1
- TEAEs Leading to study discontinuation, n - Number of subjects [1, 6]: 1
- TEAEs, % [1, 6]: 23.3%
- TEAEs, e - Number of events [1, 6]: 27
- TEAEs, n - Number of subjects [1, 6]: 14
- hyperkalemia leading to trial discontinuation ([1]; active Baxdrostat groups): No instances of hyperkalemia led to trial discontinuation
- cortisol levels with an adrenocorticotropin hormone challenge (aldosterone synthase; single oral dose): no meaningful effect on cortisol levels
- aldosterone levels (aldosterone synthase; single oral dose 1 to 360 mg, fasted, low salt and normal salt diet): significantly reduced aldosterone levels in a dose-dependent manner
- Tmax ([2]; fasted state): ~3 h
- Tmax ([2]; fed state (high-fat meal)): ~4 h
- plasma levels, oral solution vs tablet ([2]; single 5 mg dose of each formulation): equivalent
- effect of high-fat meal on plasma levels ([2]; tablet, single 5 mg): no noteworthy effect
- deaths or serious adverse events [3]: no deaths or serious adverse events
- severity of treatment-emergent adverse events [3]: mild in severity
